Data on four compounds can be found in ChEMBL document CHEMBL2074427, “Identification of a mechanism by which the methylmercury antidotes N-acetylcysteine and dimercaptopropanesulfonate enhance urinary metal excretion: transport by the renal organic anion transporter-1” (Mol Pharmacol, 2002).

The target in data set [1] is T1, Solute carrier family 22 member 6 (Rattus norvegicus, UniProt O35956).
T1 sequence (O35956 whole entry): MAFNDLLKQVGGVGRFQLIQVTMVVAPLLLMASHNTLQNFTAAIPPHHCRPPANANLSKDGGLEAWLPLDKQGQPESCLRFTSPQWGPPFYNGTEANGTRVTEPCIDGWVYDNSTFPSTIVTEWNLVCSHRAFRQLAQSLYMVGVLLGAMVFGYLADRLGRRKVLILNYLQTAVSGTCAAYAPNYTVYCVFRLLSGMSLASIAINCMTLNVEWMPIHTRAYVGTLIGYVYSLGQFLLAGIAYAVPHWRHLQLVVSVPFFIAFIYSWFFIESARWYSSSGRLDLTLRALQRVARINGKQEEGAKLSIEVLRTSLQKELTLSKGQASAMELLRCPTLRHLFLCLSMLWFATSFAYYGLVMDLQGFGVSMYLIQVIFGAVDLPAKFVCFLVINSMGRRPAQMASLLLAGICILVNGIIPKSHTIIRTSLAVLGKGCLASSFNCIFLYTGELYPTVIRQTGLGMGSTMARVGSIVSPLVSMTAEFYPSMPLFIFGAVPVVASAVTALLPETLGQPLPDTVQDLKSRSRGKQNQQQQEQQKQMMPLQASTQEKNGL
As to the kind of experiment: TP_TRANSPORTER: inhibition of PAH uptake in Xenopus laevis oocytes. The data set is classed as functional, cell-based, Oocyte.

Data set [2] addresses T1, Solute carrier family 22 member 6. As to the kind of experiment: (§1) TP_TRANSPORTER: uptake in Xenopus laevis oocytes. Particulars: oocyte. In kind it is functional, cell-based.
The target in data set [3] is T2, Organic anion transporter 3 (Rattus norvegicus, UniProt Q9R1U7).
T2 sequence (Q9R1U7 whole entry): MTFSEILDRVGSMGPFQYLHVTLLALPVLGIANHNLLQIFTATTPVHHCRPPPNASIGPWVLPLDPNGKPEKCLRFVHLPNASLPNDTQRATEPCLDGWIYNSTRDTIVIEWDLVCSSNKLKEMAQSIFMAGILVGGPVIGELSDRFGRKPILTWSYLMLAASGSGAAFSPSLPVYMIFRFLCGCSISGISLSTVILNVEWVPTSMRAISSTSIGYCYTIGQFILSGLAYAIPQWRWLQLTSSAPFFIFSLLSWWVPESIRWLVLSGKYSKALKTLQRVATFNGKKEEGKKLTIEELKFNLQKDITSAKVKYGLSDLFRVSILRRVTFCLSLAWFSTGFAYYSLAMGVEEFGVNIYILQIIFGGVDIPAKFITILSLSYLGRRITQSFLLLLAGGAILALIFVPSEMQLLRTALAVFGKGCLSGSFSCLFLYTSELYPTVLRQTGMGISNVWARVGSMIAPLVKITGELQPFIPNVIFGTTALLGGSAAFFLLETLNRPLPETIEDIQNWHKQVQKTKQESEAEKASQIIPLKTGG
Described as §1. The data set is classed as functional, cell-based. Particulars: oocyte.

With `CC(=O)N[C@@H](CS)C(=O)O` [ACETYLCYSTEINE], in data set [1], the inhibition constant Ki was 2000 µM.

Turning to MeHg-NAC, the Michaelis constant (Km) in data set [2] came out at 31 µM. For the same compound, the Activity entry in data set [3] was “is not a substrate [-]”.

Consider MeHg-glutathione, for which the Activity result in data set [2] and in data set [3] was “is not a substrate [-]” throughout.

On to MeHg-penicillamine, for which the Activity entry in data set [2] and in data set [3] was “is not a substrate [-]” in each case.
